Results published in patent US7371560B2, “Photosynthetic hydrogen production” (priority 2003, dated 2008).

What was measured:
[1] = test system: Chlamydomonas reinhardtii Stm6 cultures; assay: H2 production ± CCCP, Clark type hydrogen electrode, Stm6 cultures; format: cell-based
Experimental: (§1) H2 concentrations were measured in the liquid phase and the gaseous head space above, both for WT and Stm6 cultures (cell density of OD750 nm=0.8). Dissolved H2 concentrations were measured in 1 liter dark-adapted cell cultures in TAP medium replete with, or depleted of, sulfur using a Clark type hydrogen electrode (Unisense PA2000, Denmark) upon white light illumination. H2 concentrations in the presence and absence of 5 μM carbonylcyanide m-chlorophenylhydrazone (CCCP) were measured using dark adapted cultures (1 h) before and after illumination (white light, 300 μmol m^−2·s^−1) The H2 concentration in the gaseous head space was measured using a mass spectrometer (Delta Finnigan MAT). Cell cultures were dark-adapted for 30 min in a weak vacuum to deplete the medium and headspace of O2 and H2, prior to illumination with continuous or pulsed (3.3 Hz frequency, 5 μs flashes; light intensity range of 15-3000 μmol·m^−2·s^−1) white light.

[2] = test system: Chlamydomonas reinhardtii WT cultures; assay: H2 production ± CCCP, Clark type hydrogen electrode, WT cultures; format: cell-based; details: CCCP added to WT culture
Experimental: as §1

N#CC(C#N)=NNc1cccc(Cl)c1 [CCCP, carbonylcyanide m-chlorophenylhydrazone]
period of increased H2 production with CCCP ([1]; 5 μM CCCP, Stm6 culture): at least 30 min | H2 production rate with CCCP, higher than in the WT ([1]; 5 μM CCCP, dark adapted cultures (1 h), white light 300 μmol m^−2·s^−1, relative to WT): ~1500% | H2 production rate in the presence of CCCP, times higher than the WT ([1]; Stm6 in the presence of CCCP, relative to WT): 15 × | effect of CCCP on H2 production [2]: hardly any effect
